The text below walks through data of ChEMBL document CHEMBL1144681, “Fluorination of triptolide and its analogues and their cytotoxicity” (Bioorg Med Chem Lett, 2008).

One assay relates to A549. Nature of the assay: Cytotoxicity against human A549 cells. In kind it is functional, cell-based.
A further assay has as its system HT-29. Nature of the assay: Cytotoxicity against human HT29 cells. In kind it is functional, cell-based.

Values after ≈ are worked out from the molar mass of the structure shown. Where only a bound is given, the exact number is not on record here.

What is called IC50 is the concentration needed to halve the response being measured. Turning to `CC(C)C1=C[C@]23O[C@H]2C[C@H]2C4=C(CC[C@]2(C)[C@@]32O[C@H]2[C@H]1F)C(=O)OC4`, the IC50 in the assay with A549 turned out to be 2200 ng/mL (≈ 6.35 µM); in the assay on HT-29 it was 210 ng/mL (≈ 0.606 µM).
In the same order, the values of `CC(C)[C@]1(F)O[C@H]2[C@@H]3O[C@]34[C@]3(O[C@H]3C[C@H]3C5=C(CC[C@@]34C)C(=O)OC5)[C@H]21` are 997 ng/mL (≈ 2.75 µM) and 72 ng/mL (≈ 0.199 µM).
On the same counts, the results for `CC(C)[C@]12O[C@@H]1[C@@H]1O[C@]13[C@]1(O[C@H]1C[C@H]1C4=C(CC[C@@]13C)C(=O)OC4)[C@@H]2F` are 0.42 ng/mL (≈ 0.00116 µM) and 0.06 ng/mL (≈ 0.000166 µM).
With `CC(C)C1=C[C@]23O[C@H]2C[C@H]2C4=C(CC[C@]2(C)[C@@]32O[C@H]2[C@@H]1F)C(=O)OC4`, the figures for the IC50 in the assay on A549 and with HT-29 were 1500 ng/mL (≈ 4.33 µM) and 150 ng/mL (≈ 0.433 µM), respectively.
In the same order, the values of `CC(C)C1=C[C@]23O[C@H]2C[C@H]2C4=C(CC[C@]2(C)[C@@]32O[C@H]2[C@@H]1O)C(=O)OC4` are 81 ng/mL (≈ 0.235 µM) and 17 ng/mL (≈ 0.0494 µM).
In the case of `CC(C)[C@]12O[C@@H]1[C@@H]1O[C@]13[C@]1(O[C@H]1C[C@H]1C4=C(CC[C@@]13C)C(=O)OC4)[C@H]2F`, the 50% inhibitory concentration (IC50) in the assay with A549 is 3 ng/mL (≈ 0.00828 µM); in the assay with HT-29, 0.24 ng/mL (≈ 0.000662 µM).
Consider `CC(C)C(=O)[C@H]1[C@@H](O)[C@@H]2O[C@]23[C@]12O[C@H]2C[C@H]1C2=C(CC[C@@]13C)C(=O)OC2`, for which the IC50 is above 1 ng/mL in the assay on A549 and 86 ng/mL (≈ 0.239 µM) with HT-29.
On the same counts, the results for `CC(C)[C@]12O[C@H]1[C@@H]1O[C@]13[C@]1(O[C@H]1C[C@H]1C4=C(CC[C@@]13C)C(=O)OC4)[C@H]2O` [EPITRIPTOIIDE] are 59 ng/mL (≈ 0.164 µM) and 9.1 ng/mL (≈ 0.0252 µM).
On the same counts, the results for `CC(C)[C@]12O[C@H]1[C@@H]1O[C@]13[C@]1(O[C@H]1C[C@H]1C4=C(CC[C@@]13C)C(=O)OC4)[C@@H]2O` [TRIPTOLIDE] are 1.3 ng/mL (≈ 0.00361 µM) and 0.1 ng/mL (≈ 0.000277 µM).
With `CC(C)[C@]12O[C@H]1[C@@H]1O[C@@]13[C@@]1(C)CCC4=C(COC4=O)[C@@H]1C[C@@H]1O[C@@]13C2=O` [TRIPTONIDE], the IC50 with A549 was 3.5 ng/mL (≈ 0.00977 µM); in the assay on HT-29, below 0.46 ng/mL.
